Assay results: patent US20230072421A1, “TARGETED RADIOPHARMACEUTICALS FOR THE DIAGNOSIS AND TREATMENT OF PROSTATE CANCER” (Bayer AS, priority 2019, published 2023)

Assay: Biodistribution study in LNCaP tumor-bearing mice (Th227 counted in organs)
Type: in vivo, SCID mice
Conditions: 1500 kBq/kg
Summary of the method: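 SCID mice bearing testosterone pellets and subcutaneous LNCaP flank tumors (~50 mm^2) received a single intravenous dose of the radioactive compound. At set time points, n=3 animals were sacrificed, and organs were removed, weighed and counted for Th227 on a Germanium detector.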

Q: Which results are given for `O=C([O-])CN1CCN(CC(=O)[O-])CCN(CC(=O)NCC2CCC(C(=O)NC(Cc3ccc4ccccc4c3)C(=O)NCCCCC(NC(=O)NC(CCC(=O)O)C(=O)O)C(=O)O)CC2)CCN(CC(=O)[O-])CC1.[227Th+4]` [Example 1-B-D-227Th, [^227Th]Thorium-(3S,10S,14R)-3-[(naphthalen-2-yl)methyl]-1,4,12-trioxo-1-{(1r,4S)-4-[(2-{4,7,10-tris[(carboxy-kappaO)methyl]-1,4,7,10-tetraazacyclododecan-1-yl-kappa^4N^1,N^4,N^7,N^10}acetamido)methyl]cyclohexyl}-2,5,11,13-tetraazahexadecane-10,14,16-tricarboxylate]?
A: Th-227 in Blood (0.25 h): 4.97% ID Th-227/g organ; Th-227 in Liver (0.25 h): 1.25% ID Th-227/g organ; Th-227 in Spleen (0.25 h): 1.91% ID Th-227/g organ; Th-227 in Tumor (0.25 h): 2.08% ID Th-227/g organ; Th-227 in bone (0.25 h): 1.70% ID Th-227/g organ; Th-227 in brain (0.25 h): 0.18% ID Th-227/g organ; Th-227 in kidney (0.25 h): 10.76% ID Th-227/g organ; Th-227 in large intestine (0.25 h): 0.75% ID Th-227/g organ; Th-227 in lung (0.25 h): 3.67% ID Th-227/g organ; Th-227 in muscle (0.25 h): 0.88% ID Th-227/g organ; Th-227 in prostate (0.25 h): 6.26% ID Th-227/g organ; Th-227 in salivary glands (0.25 h): 1.61% ID Th-227/g organ; Th-227 in small intestine (0.25 h): 1.21% ID Th-227/g organ; Th-227 in Blood (1 hr): 1.04% ID Th-227/g organ; Th-227 in Liver (1 hr): 0.59% ID Th-227/g organ; Th-227 in Spleen (1 hr): 1.09% ID Th-227/g organ; Th-227 in Tumor (1 hr): 1.16% ID Th-227/g organ; Th-227 in bone (1 hr): 0.99% ID Th-227/g organ; Th-227 in kidney (1 hr): 4.11% ID Th-227/g organ; Th-227 in large intestine (1 hr): 0.18% ID Th-227/g organ; Th-227 in lung (1 hr): 0.98% ID Th-227/g organ; Th-227 in muscle (1 hr): 0.24% ID Th-227/g organ; Th-227 in prostate (1 hr): 2.87% ID Th-227/g organ; Th-227 in salivary glands (1 hr): 0.52% ID Th-227/g organ; Th-227 in small intestine (1 hr): 0.26% ID Th-227/g organ; Th-227 in Blood (4 hr): 0.20% ID Th-227/g organ; Th-227 in Liver (4 hr): 0.43% ID Th-227/g organ; Th-227 in Spleen (4 hr): 0.34% ID Th-227/g organ; Th-227 in Tumor (4 hr): 1.59% ID Th-227/g organ; Th-227 in bone (4 hr): 1.68% ID Th-227/g organ; Th-227 in brain (4 hr): 0.01% ID Th-227/g organ; Th-227 in kidney (4 hr): 2.97% ID Th-227/g organ; Th-227 in large intestine (4 hr): 0.17% ID Th-227/g organ; Th-227 in lung (4 hr): 0.43% ID Th-227/g organ; Th-227 in muscle (4 hr): 0.05% ID Th-227/g organ; Th-227 in salivary glands (4 hr): 0.30% ID Th-227/g organ; Th-227 in small intestine (4 hr): 0.17% ID Th-227/g organ; Th-227 in Liver (24 h): 0.31% ID Th-227/g organ; Th-227 in Spleen (24 h): 0.23% ID Th-227/g organ; Th-227 in Tumor (24 h): 0.95% ID Th-227/g organ; Th-227 in bone (24 h): 1.29% ID Th-227/g organ; Th-227 in kidney (24 h): 0.83% ID Th-227/g organ; Th-227 in large intestine (24 h): 0.07% ID Th-227/g organ; Th-227 in lung (24 h): 0.16% ID Th-227/g organ; Th-227 in muscle (24 h): 0.00% ID Th-227/g organ; Th-227 in salivary glands (24 h): 0.09% ID Th-227/g organ; Th-227 in small intestine (24 h): 0.08% ID Th-227/g organ; Th-227 in Liver (96 h): 0.31% ID Th-227/g organ; Th-227 in Spleen (96 h): 0.29% ID Th-227/g organ; Th-227 in Tumor (96 h): 1.05% ID Th-227/g organ; Th-227 in bone (96 h): 2.88% ID Th-227/g organ; Th-227 in kidney (96 h): 0.37% ID Th-227/g organ; Th-227 in lung (96 h): 0.14% ID Th-227/g organ; Th-227 in muscle (96 h): 0.00% ID Th-227/g organ; Th-227 in salivary glands (96 h): 0.13% ID Th-227/g organ; Th-227 in small intestine (96 h): 0.06% ID Th-227/g organ
